Experimental findings from patent US20250213597A1, “AGENT FOR INDUCING PROLIFERATION OR DIFFERENTIATION OF CHONDROCYTE” (TOHOKU UNIVERSITY, priority 2022, published 2025) are described below.

The test system of this experiment is ATDC5 cells. The experiment can be described thus: Proliferation test of ATDC5 cells. It counts as cell-based. As for the experimental part: ATDC5 cells were cultured at a cell density of 5×10^5 cells/35 mm dish. As the culture solution, DMEM-Ham's F12 medium containing 5% FBS and 1% Pen/Strep was used. Adjustment was conducted to final concentrations of MPMBP of 10 μM (M10) and 100 μM (M100), clodronate of 10 μM (C10) and 100 μM (C100), zoledronate of 10 μM (Z10) and 100 μM (Z100) and a control (Vehicle), and the cells were cultured under the conditions of 5% CO2 at 37° C. The medium was changed every three days.

Take `O=P(O)(O)C(O)(Cn1ccnc1)P(=O)(O)O` [zoledronate]: the number of cells entry is on record as “decreased significantly” (sixth day of culture, 10 μM); “decreased significantly” (sixth day of culture, 100 μM); “decreased” (third day of culture, 10 μM); “decreased” (third day of culture, 100 μM).
Take `O=P(O)(O)C(Cl)(Cl)P(=O)(O)O` [clodronate]: the number of cells result is, setting by setting: (third day of culture, 10 μM) “increased”; (third day of culture, 100 μM) “increased”.
